Like-named read-outs stand apart in the source and are kept apart here.
Target: T1, human trace amine associated receptor 1 (hTAAR1) (Homo sapiens, UniProt Q96RJ0)
T1 construct: gene TAAR1; hTAAR1 with the first nine amino acids of the β2-adrenergic receptor added at N-terminus
T1 sequence (Q96RJ0 1-339): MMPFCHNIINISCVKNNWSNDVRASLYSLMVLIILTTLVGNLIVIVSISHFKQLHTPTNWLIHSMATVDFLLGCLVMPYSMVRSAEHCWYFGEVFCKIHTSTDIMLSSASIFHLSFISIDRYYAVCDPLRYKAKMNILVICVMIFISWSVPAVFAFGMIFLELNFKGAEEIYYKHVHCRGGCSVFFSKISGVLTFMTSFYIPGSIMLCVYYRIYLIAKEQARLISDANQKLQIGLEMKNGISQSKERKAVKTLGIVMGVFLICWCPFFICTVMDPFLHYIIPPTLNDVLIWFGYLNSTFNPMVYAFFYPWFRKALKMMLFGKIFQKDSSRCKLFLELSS
Test: [3H]-cAMP accumulation (column assay) in HEK-293 cells transfected with hTAAR1; no effect in mock cells
Assay type: cell-based

SMILES | EC50 [nM] | EC50 (read-out: EC50) [nM]
COc1cc(CCN)ccc1O [3-MT, 3-methoxytyramine] | 700 ± 180 | 
NCCc1ccc(O)cc1 [tyramine] |  | 320 ± 100

From publication PMC2956650, “The Dopamine Metabolite 3-Methoxytyramine Is a Neuromodulator” (PLoS ONE, 2010)
